Results taken from patent US9457033B2, “Steroid alkaloids and uses thereof as antimicrobial agents against electron transport-deficient microbes and as potentiators for antimicrobial agents against pathogenic bacteria” (priority 2011, dated 2016).

What was measured:
[1] = test system: S. aureus ATCC 29213; assay: MIC, microdilution in BHI 48 h (Examples 1, 3); format: cell-based, Staphylococcus aureus
[2] = test system: S. aureus Newbould (normal strain); assay: MIC, microdilution in BHI 48 h; format: cell-based, Staphylococcus aureus; conditions: Newbould, normal strain
[3] = test system: S. aureus SCV NewbouldΔhemB; assay: MIC, microdilution in BHI 48 h; format: cell-based, Staphylococcus aureus; conditions: NewbouldΔhemB, SCV
[4] = test system: S. aureus CF07-L (normal strain); assay: MIC, microdilution in BHI 48 h (Examples 1, 3); format: cell-based, Staphylococcus aureus
[5] = test system: S. aureus SCV CF07-S; assay: MIC, microdilution in BHI 48 h (Examples 1, 3); format: cell-based, Staphylococcus aureus
[6] = test system: S. aureus CF1A-L (normal strain); assay: MIC, microdilution in BHI 48 h; format: cell-based, Staphylococcus aureus; conditions: CF1A-L, normal strain
[7] = test system: S. aureus SCV CF1D-S; assay: MIC, microdilution in BHI 48 h; format: cell-based, Staphylococcus aureus; conditions: CF1D-S, SCV
[8] = test system: S. aureus ATCC BAA-41; assay: MIC, microdilution in CAMHB 24 h; format: cell-based, Staphylococcus aureus
[9] = test system: S. aureus MA078038; assay: MIC, microdilution in CAMHB 24 h; format: cell-based, Staphylococcus aureus
[10] = test system: S. aureus Mu50; assay: MIC, microdilution in CAMHB 24 h; format: cell-based, Staphylococcus aureus
[11] = test system: S. aureus Sa228c; assay: MIC, microdilution in CAMHB 24 h; format: cell-based, Staphylococcus aureus; conditions: Sa228c, 8 μg/ml of tomatidine
[12] = test system: S. aureus CF2A-L; assay: MIC, microdilution in CAMHB 24 h; format: cell-based; conditions: CF2A-L
[13] = test system: all tested S. aureus strains; assay: Average potentiation of aminoglycoside MIC by tomatidine (FIGS. 6, 7); format: cell-based, Staphylococcus aureus; conditions: tomatidine at 8 μg/ml
[14] = test system: S. epidermidis ATCC 12228; assay: MIC, microdilution, with or without tomatidine; conditions: S. epidermidis ATCC 12228
[15] = test system: S. epidermidis ATCC 35984; assay: MIC, microdilution, with or without tomatidine; conditions: S. epidermidis ATCC 35984
[16] = test system: S. haemolyticus sh022; assay: MIC, microdilution, with or without tomatidine; conditions: S. haemolyticus sh022
[17] = test system: S. haemolyticus sh032; assay: MIC, microdilution, with or without tomatidine; conditions: S. haemolyticus sh032
[18] = test system: S. hominis ssp008c; assay: MIC, microdilution, with or without tomatidine; conditions: S. hominis ssp008c
[19] = test system: S. hominis sho23; assay: MIC, microdilution, with or without tomatidine; conditions: S. hominis sho23
[20] = test system: normal strain CF07-L; assay: Broth growth with gentamicin or tomatidine, visually evaluated (FIG. 5A); conditions: gentamicin at 4 μg/ml or tomatidine at 0.12 μg/ml alone, 48 h

gentamicin
MIC ([1]; ATCC 29213 + HQNO at 20 μg/ml): 4 µg/mL
MIC ([1]; ATCC 29213, without HQNO): 1 µg/mL
MIC in presence of CCCP ([1]; ATCC 29213, 1 μg/ml CCCP): 4 to 8 µg/mL
MIC ([1]; ATCC 29213 in BHI): 1 µg/mL
MIC ([1]; ATCC 29213 in MHBCA): 0.5-1^ μg/ml
MIC [2]: 0.5-1^ μg/ml
MIC [3]: 4 to 8 µg/mL
MIC ([4]; CF07-L + HQNO at 20 μg/ml): 4 µg/mL
MIC ([4]; CF07-L, normal strain): 1 to 2 µg/mL
MIC ([4]; CF07-L, without HQNO): 1 to 2 µg/mL
MIC ([5]; CF07-S + HQNO at 20 μg/ml): 4 to 8 µg/mL
MIC ([5]; CF07-S, SCV): 8 µg/mL
MIC ([5]; CF07-S, without HQNO): 8 µg/mL
MIC [6]: 1 to 2 µg/mL
MIC [7]: 8 µg/mL
MIC +TO ([8]; ATCC BAA-41, ant(4′)-Ia, 8 μg/ml of tomatidine): 0.12 to 0.25 µg/mL
MIC −TO ([8]; ATCC BAA-41, ant(4′)-Ia, absence of tomatidine): 0.5 µg/mL
Fold (−TO/+TO) ([8]; ATCC BAA-41, 8 μg/ml of tomatidine): 2-4 fold
MIC ([8]; ATCC BAA-41, Human (HA), MRSA): 0.5 µg/mL
MIC +TO ([9]; MA078038, aph(3′)-IIIa, 8 μg/ml of tomatidine): 0.06 µg/mL
MIC −TO ([9]; MA078038, aph(3′)-IIIa, absence of tomatidine): 0.25 to 0.5 µg/mL
Fold (−TO/+TO) ([9]; MA078038, 8 μg/ml of tomatidine): 4-8 fold
MIC ([9]; MA078038, Human (CA), MRSA): 0.25 to 0.5 µg/mL
MIC +TO ([10]; Mu50, aac(6′)-aph(2″), ant(4′)-Ia, 8 μg/ml of tomatidine): 16 µg/mL
MIC −TO ([10]; Mu50, aac(6′)-aph(2″), ant(4′)-Ia, absence of tomatidine): 128 µg/mL
Fold (−TO/+TO) ([10]; Mu50, 8 μg/ml of tomatidine): 8 fold
MIC ([10]; Mu50, Human (SSTI), MRSA, VISA): 128 (R) μg/ml
MIC +TO ([11]; aac(6′)-aph(2″), ant(4′)-Ia): 8 to 16 µg/mL
Fold (−TO/+TO) [11]: 8 fold
Fold (−TO/+TO) ([12]; 8 μg/ml of tomatidine): 4-8 fold
MIC +TO ([12]; 8 μg/ml of tomatidine): 0.12 to 0.25 µg/mL
MIC ([12]; Human (CF lungs)): 1 µg/mL
MIC −TO ([12]; absence of tomatidine): 1 µg/mL
average increase of antibacterial activity [13]: 8±3 fold
Fold (−TO/+TO) ([14]; 8 μg/ml of tomatidine): 2 fold
MIC +TO ([14]; 8 μg/ml of tomatidine): 0.06 µg/mL
MIC −TO ([14]; absence of tomatidine): 0.12 µg/mL
Fold (−TO/+TO) ([15]; 8 μg/ml of tomatidine): 4 fold
MIC +TO ([15]; 8 μg/ml of tomatidine): 8 µg/mL
MIC −TO ([15]; absence of tomatidine): 32 µg/mL
Fold (−TO/+TO) ([16]; 8 μg/ml of tomatidine): 4 fold
MIC +TO ([16]; 8 μg/ml of tomatidine): 4 µg/mL
MIC −TO ([16]; absence of tomatidine): 16 µg/mL
Fold (−TO/+TO) ([17]; 8 μg/ml of tomatidine): 8 fold
MIC +TO ([17]; 8 μg/ml of tomatidine): 8 µg/mL
MIC −TO ([17]; absence of tomatidine): 64 µg/mL
Fold (−TO/+TO) ([18]; 8 μg/ml of tomatidine): 4 fold
MIC +TO ([18]; 8 μg/ml of tomatidine): 2 µg/mL
MIC −TO ([18]; absence of tomatidine): 8 µg/mL
Fold (−TO/+TO) ([19]; 8 μg/ml of tomatidine): 2 fold
MIC +TO ([19]; 8 μg/ml of tomatidine): 0.06 µg/mL
MIC −TO ([19]; absence of tomatidine): 0.12 µg/mL
growth, visually evaluated [20]: inhibits the growth
